Experimental findings from ChEMBL document CHEMBL4308863, “Oxidative nucleophilic substitution selectively produces cambinol derivatives with antiproliferative activity on bladder cancer cell lines” (Bioorg Med Chem Lett, 2019) are described below.

Activity calls are given as the source filed them. No cut-off for these calls is given here. Where only a bound is given, the exact number is not on record here.

For test [1], the system named is EJ. The test can be described thus: Antiproliferative activity against human MGHU1 cells expressing wild-type p53 assessed as decrease in cell viability after 3 hrs by MTT assay. Type of test: functional, cell-based.
Test [2] can be described thus: Cytotoxicity against human C3PV cells assessed as decrease in cell viability after 3 hrs by MTT assay. Type of test: cell-based. (In general: Tetrazolium assays rely on reduction of a dye to a coloured formazan, in cell work by metabolically active cells.)
Test [3] deals with T1, NAD-dependent protein deacetylase sirtuin-1 (Homo sapiens) (UniProt Q96EB6).
T1 sequence (whole entry): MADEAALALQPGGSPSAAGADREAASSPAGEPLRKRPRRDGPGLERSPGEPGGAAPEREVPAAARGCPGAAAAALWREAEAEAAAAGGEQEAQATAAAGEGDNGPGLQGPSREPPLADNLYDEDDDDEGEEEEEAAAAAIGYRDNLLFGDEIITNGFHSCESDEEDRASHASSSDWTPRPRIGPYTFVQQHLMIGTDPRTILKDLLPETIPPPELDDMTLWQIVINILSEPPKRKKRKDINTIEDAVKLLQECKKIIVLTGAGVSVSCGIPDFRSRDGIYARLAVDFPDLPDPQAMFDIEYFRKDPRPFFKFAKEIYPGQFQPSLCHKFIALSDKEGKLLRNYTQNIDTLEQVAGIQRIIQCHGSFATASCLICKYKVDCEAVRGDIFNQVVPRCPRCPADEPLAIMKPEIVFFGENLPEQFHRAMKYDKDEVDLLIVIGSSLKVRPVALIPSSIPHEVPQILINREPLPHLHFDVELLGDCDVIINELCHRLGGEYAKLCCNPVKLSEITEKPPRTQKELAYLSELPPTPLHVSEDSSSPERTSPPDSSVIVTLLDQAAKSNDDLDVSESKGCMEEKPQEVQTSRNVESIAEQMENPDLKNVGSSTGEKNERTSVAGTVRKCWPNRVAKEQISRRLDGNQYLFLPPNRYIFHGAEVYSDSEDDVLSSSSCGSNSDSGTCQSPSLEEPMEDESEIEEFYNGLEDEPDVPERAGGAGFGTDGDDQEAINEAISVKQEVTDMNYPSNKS
The test can be described thus: Inhibition of SIRT1 (unknown origin) at 10 uM using acetylated peptide p53K382 as substrate preincubated for 15 mins followed by substrate addition and measured after 40 mins by fluorescence assay.

The test system of test [4] is EJ. In words: Antiproliferative activity against human MGHU1 cells expressing wild-type p53 assessed as decrease in cell viability after 24 hrs by MTT assay. Type of test: functional, cell-based.
The test system of test [5] is RT-112. The test can be described thus: Antiproliferative activity against human RT112 cells expressing p53 mutant assessed as decrease in cell viability after 3 hrs by MTT assay. The test is classed as functional, cell-based. As to conditions: RT-112, 3 h.
Test [6] can be described thus: Cytotoxicity against human C3PV cells assessed as decrease in cell viability after 24 hrs by MTT assay. The test is classed as cell-based.
Test [7] concerns RT-112. In words: Antiproliferative activity against human RT112 cells expressing p53 mutant assessed as decrease in cell viability after 24 hrs by MTT assay. Type of test: functional, cell-based. The note with it: RT-112, 24 h.
For test [8], the system named is EJ. The test can be described thus: Inhibition of colony formation in human MGHU1 cells expressing wild-type p53 at […] uM after 3 to 24 hrs by crystal violet staining based assay. Type of test: functional, cell-based.
The test system of test [9] is RT-112. In words: Inhibition of colony formation in human RT112 cells expressing p53 mutant at 24.50 to 28.74 uM after 3 to 24 hrs by crystal violet staining based assay. Type of test: functional, cell-based.
Test [10] addresses T1, NAD-dependent protein deacetylase sirtuin-1 (Homo sapiens). The test can be described thus: Inhibition of SIRT1 in human MGHU1 cells assessed as stabilization of p53 by measuring increase in p53 acetylation after 3 to 24 hrs by Western blot analysis. Type of test: cell-based. (A western blot detects proteins with antibodies after separation by electrophoresis.)
For test [11], the system named is EJ. The test can be described thus: Effect on acetylated-p53 expression in human MGHU1 cells after 3 to 24 hrs by Western blot analysis. Type of test: functional, cell-based.
The test system of test [12] is EJ. The test can be described thus: Effect on acetylated-histone H3 expression in human MGHU1 cells after 3 to 24 hrs by Western blot analysis. Type of test: functional, cell-based.
For test [13], the target named is T1, NAD-dependent protein deacetylase sirtuin-1 (Homo sapiens). The test can be described thus: Inhibition of SIRT1 in human MGHU1 cells assessed as induction of p53 after 3 to 24 hrs by Western blot analysis. Type of test: cell-based.

As usually defined, the IC50 is the point on the concentration scale where inhibition reaches its midpoint.

In the case of `O=c1[nH]c(NCCO)nc(-c2ccccc2)c1Cc1c(O)ccc2ccccc12`, the IC50 with EJ [1] was 282 µM; in [2], > 300 µM; with EJ [4] it was > 300 µM; in the test on RT-112 [5] it was 7.2 µM; in test [6], > 300 µM; in the test on RT-112 [7], 96.6 µM. The inhibition result in test [3] was “inactive”.

For the compound `O=c1[nH]c(NCCc2ccc(O)c(O)c2)nc(-c2ccccc2)c1Cc1c(O)ccc2ccccc12`, the IC50 was 12.6 µM in the test on EJ [1]; > 300 µM in test [2]; 71.7 µM in the test on EJ [4]; 35.9 µM with RT-112 [5]; > 300 µM in test [6]; 79.3 µM in the test on RT-112 [7]. In [3], the inhibition result is “inactive”.

Turning to `CCCCNc1nc(-c2ccccc2)c(Cc2c(O)ccc3ccccc23)c(=O)[nH]1`, the inhibition result with EJ [8] and in the test with RT-112 [9] was “Active” in each case. The IC50 in the test with EJ [1] is 24.5 µM; in test [2], 47.6 µM; in the test on EJ [4], 28.7 µM; with RT-112 [5], 1.9 µM; in test [6], > 300 µM; with RT-112 [7], 1.6 µM. The inhibition entry in [10], in test [3] and in test [13] was “inactive” throughout. For the same compound, the outcome in the test on EJ [11] and with EJ [12] was inactive.

With `O=c1[nH]c(=S)[nH]c(-c2ccccc2)c1Cc1c(O)ccc2ccccc12` [CAMBINOL], the half-maximal inhibitory concentration (IC50) in the test with EJ [1] is 95.9 µM; in test [2], 39.9 µM; in the test with EJ [4] it was 242 µM; in the test with RT-112 [5] it was 37.9 µM; in test [6], > 300 µM; in the test with RT-112 [7] it was 125 µM.

In the case of `O=c1[nH]c(Nc2ccc(O)cc2)nc(-c2ccccc2)c1Cc1c(O)ccc2ccccc12`, the IC50 is 90.9 µM in the test with EJ [1]; > 300 µM in test [2]; 92.4 µM in the test on EJ [4]; > 300 µM in the test on RT-112 [5]; > 300 µM in test [6]; 265 µM in the test on RT-112 [7]. Further, in test [3], the inhibition entry is “inactive”.

In the case of `CCN(CC)c1nc(-c2ccccc2)c(Cc2c(O)ccc3ccccc23)c(=O)[nH]1`, the IC50 in the test on EJ [1] was 15.4 µM; in test [2] it was > 300 µM; in the test on EJ [4], 79.7 µM; in the test with RT-112 [5] it was 32.2 µM; in test [6], > 300 µM; in the test with RT-112 [7] it was 155 µM. Also, in [3], the inhibition entry is “inactive”.

For the compound `O=c1[nH]c(NCCc2ccc(O)cc2)nc(-c2ccccc2)c1Cc1c(O)ccc2ccccc12`, the IC50 in the test on EJ [1] is 22.1 µM; in test [2], 145 µM; in the test with EJ [4], 82.1 µM; in the test on RT-112 [5], 48.9 µM; in test [6], > 300 µM; with RT-112 [7], 106 µM. In addition, the inhibition entry in test [3] is “inactive”.

For `COc1ccc(Nc2nc(-c3ccccc3)c(Cc3c(O)ccc4ccccc34)c(=O)[nH]2)cc1`, the concentration for half-maximal inhibition (IC50) with EJ [1] is 160 µM; in test [2], > 300 µM; in the test on EJ [4], 63.7 µM; with RT-112 [5], 18.5 µM; in [6] it was > 300 µM; in the test with RT-112 [7] it was 138 µM. The inhibition entry in test [3] is “inactive”.

`C#CCNc1nc(-c2ccccc2)c(Cc2c(O)ccc3ccccc23)c(=O)[nH]1`: the IC50 in the test on EJ [1] is 16.8 µM; in test [2] it was > 300 µM; in the test with EJ [4], 148 µM; with RT-112 [5], 91.2 µM; in test [6], > 300 µM; in the test with RT-112 [7], 130 µM. The inhibition result in test [3] was “inactive”.
